In ChEMBL document CHEMBL4308841, “Synthesis, in vitro antiproliferative activity, and kinase inhibitory effects of pyrazole-containing diarylureas and diarylamides” (Eur J Med Chem, 2018):

Experiments:
SK-MEL-28 [1] = assay: Growth inhibition of human SK-MEL-28 cells assessed as cell growth at 1 uM incubated for 48 hrs by sulforhodamine B assay relative to control; assay type: functional; details: SK-MEL-28, 48 h, read-out: Activity
NCI/ADR-RES [2] = assay: Growth inhibition of human NCI/ADR-RES cells assessed as cell growth at 100 uM incubated for 48 hrs by sulforhodamine B assay relative to control; assay type: functional; details: read-out: Activity
SK-MEL-2 = assay: Growth inhibition of human SK-MEL-2 cells assessed as cell growth at 10 uM incubated for 48 hrs by sulforhodamine B assay relative to control; assay type: functional; details: SK-MEL-2, 48 h, read-out: Activity
RXF 393 = assay: Growth inhibition of human RXF393 cells assessed as cell growth at 0.01 uM incubated for 48 hrs by sulforhodamine B assay relative to control; assay type: functional; details: RXF 393, 48 h, read-out: Activity
NCI-H522 [3] = assay: Growth inhibition of human NCI-H522 cells assessed as cell growth at 10 uM incubated for 48 hrs by sulforhodamine B assay relative to control; assay type: functional; details: NCI-H522, 48 h, read-out: Activity
U-251 [4] = assay: Growth inhibition of human U251 cells assessed as cell growth at 1 uM incubated for 48 hrs by sulforhodamine B assay relative to control; assay type: functional; details: U-251, 48 h, read-out: Activity
NCI-H522 [5] = assay: Growth inhibition of human NCI-H522 cells assessed as cell growth at 1 uM incubated for 48 hrs by sulforhodamine B assay relative to control; assay type: functional; details: NCI-H522, 48 h, read-out: Activity
UACC-257 = assay: Growth inhibition of human UACC257 cells assessed as cell growth at 1 uM incubated for 48 hrs by sulforhodamine B assay relative to control; assay type: functional; details: UACC-257, 48 h, read-out: Activity
M14 = assay: Growth inhibition of human M14 cells assessed as cell growth at 0.01 uM incubated for 48 hrs by sulforhodamine B assay relative to control; assay type: functional; details: M14, 48 h, read-out: Activity
SK-MEL-5 = assay: Growth inhibition of human SK-MEL-5 cells assessed as cell growth at 100 uM incubated for 48 hrs by sulforhodamine B assay relative to control; assay type: functional; details: SK-MEL-5, 48 h, read-out: Activity
SK-OV-3 [6] = assay: Growth inhibition of human SKOV3 cells assessed as cell growth at 0.1 uM incubated for 48 hrs by sulforhodamine B assay relative to control; assay type: functional; details: SK-OV-3, 48 h, read-out: Activity
SF-268 = assay: Growth inhibition of human SF268 cells incubated for 48 hrs by sulforhodamine B assay; assay type: functional, cell-based; details: SF-268, 48 h
NCI/ADR-RES [7] = assay: Growth inhibition of human NCI/ADR-RES cells assessed as cell growth at 0.01 uM incubated for 48 hrs by sulforhodamine B assay relative to control; assay type: functional; details: read-out: Activity
786-0 [8] = assay: Growth inhibition of human 786-0 cells assessed as cell growth at 0.1 uM incubated for 48 hrs by sulforhodamine B assay relative to control; assay type: functional; details: 786-0, 48 h, read-out: Activity
SK-OV-3 [9] = assay: Growth inhibition of human SKOV3 cells assessed as cell growth at 100 uM incubated for 48 hrs by sulforhodamine B assay relative to control; assay type: functional; details: SK-OV-3, 48 h, read-out: Activity
IGROV-1 [10] = assay: Growth inhibition of human IGROV1 cells assessed as cell growth at 0.1 uM incubated for 48 hrs by sulforhodamine B assay relative to control; assay type: functional; details: IGROV-1, 48 h, read-out: Activity
CAKI-1 = assay: Growth inhibition of human Caki1 cells incubated for 48 hrs by sulforhodamine B assay; assay type: functional, cell-based; details: CAKI-1, 48 h
HCT-15 = assay: Growth inhibition of human HCT15 cells assessed as cell growth at 0.1 uM incubated for 48 hrs by sulforhodamine B assay relative to control; assay type: functional; details: HCT-15, 48 h, read-out: Activity
KM12 [11] = assay: Growth inhibition of human KM12 cells incubated for 48 hrs by sulforhodamine B assay; assay type: functional, cell-based; details: KM12, 48 h
OVCAR-4 = assay: Growth inhibition of human OVCAR4 cells assessed as cell growth at 0.1 uM incubated for 48 hrs by sulforhodamine B assay relative to control; assay type: functional; details: OVCAR-4, 48 h, read-out: Activity
SF-295 = assay: Growth inhibition of human SF295 cells assessed as cell growth at 1 uM incubated for 48 hrs by sulforhodamine B assay relative to control; assay type: functional; details: SF-295, 48 h, read-out: Activity
SNB-75 = assay: Growth inhibition of human SNB75 cells assessed as cell growth at 1 uM incubated for 48 hrs by sulforhodamine B assay relative to control; assay type: functional; details: SNB-75, 48 h, read-out: Activity
SK-MEL-28 [12] = assay: Growth inhibition of human SK-MEL-28 cells incubated for 48 hrs by sulforhodamine B assay; assay type: functional, cell-based; details: SK-MEL-28, 48 h
IGROV-1 [13] = assay: Growth inhibition of human IGROV1 cells assessed as cell growth at 0.01 uM incubated for 48 hrs by sulforhodamine B assay relative to control; assay type: functional; details: IGROV-1, 48 h, read-out: Activity
T47D = assay: Growth inhibition of human T47D cells assessed as cell growth at 0.1 uM incubated for 48 hrs by sulforhodamine B assay relative to control; assay type: functional; details: read-out: Activity
U-251 [14] = assay: Growth inhibition of human U251 cells assessed as cell growth at 100 uM incubated for 48 hrs by sulforhodamine B assay relative to control; assay type: functional; details: U-251, 48 h, read-out: Activity
K562 = assay: Growth inhibition of human K562 cells assessed as cell growth at 100 uM incubated for 48 hrs by sulforhodamine B assay relative to control; assay type: functional; details: K562, 48 h, read-out: Activity
IGROV-1 [15] = assay: Growth inhibition of human IGROV1 cells assessed as cell growth at 1 uM incubated for 48 hrs by sulforhodamine B assay relative to control; assay type: functional; details: IGROV-1, 48 h, read-out: Activity
HT-29 = assay: Growth inhibition of human HT-29 cells assessed as cell growth at 10 uM incubated for 48 hrs by sulforhodamine B assay relative to control; assay type: functional; details: HT-29, 48 h, read-out: Activity
786-0 [16] = assay: Growth inhibition of human 786-0 cells assessed as cell growth at 0.01 uM incubated for 48 hrs by sulforhodamine B assay relative to control; assay type: functional; details: 786-0, 48 h, read-out: Activity
BT-549 = assay: Growth inhibition of human BT549 cells assessed as cell growth at 0.01 uM incubated for 48 hrs by sulforhodamine B assay relative to control; assay type: functional; details: BT-549, 48 h, read-out: Activity
KM12 [17] = assay: Growth inhibition of human KM12 cells assessed as cell growth at 100 uM incubated for 48 hrs by sulforhodamine B assay relative to control; assay type: functional; details: KM12, 48 h, read-out: Activity
[18] = read-out: LC50 (the source's name)
[19] = read-out: pLC50 (the source's name) (converted)

O=C(Nc1cccc(-n2cc(-c3ccncc3)c(-c3cc(O)cc(Cl)c3)n2)c1)c1cc(C(F)(F)F)cc(C(F)(F)F)c1
growth at 1 µM (SK-MEL-28 [1]): 55%
growth at 100 µM (NCI/ADR-RES [2]): 9%
growth at 10 µM (SK-MEL-2): 57.8%
growth at 0.01 µM (RXF 393): 96%
growth at 10 µM (NCI-H522 [3]): 17.8%
growth at 1 µM (U-251 [4]): 53%
growth at 1 µM (NCI-H522 [5]): 54%
growth at 1 µM (UACC-257): 92%
growth at 0.01 µM (M14): 100%
growth at 100 µM (SK-MEL-5): -45%
growth at 0.1 µM (SK-OV-3 [6]): 98%
GI50 (SF-268; read-out: GI50): 6.38 µM
CC50 (SF-268; [18]): > 100 µM
TGI (SF-268; read-out: TGI): > 100 µM
GI50 (SF-268; read-out: pGI50 (converted)): 6.46 µM
CC50 (SF-268; [19]): > 100 µM
TGI (SF-268; read-out: pTGI (converted)): > 100 µM
growth at 0.01 µM (NCI/ADR-RES [7]): 101%
growth at 0.1 µM (786-0 [8]): 97%
growth at 100 µM (SK-OV-3 [9]): 30%
growth at 0.1 µM (IGROV-1 [10]): 98%
GI50 (CAKI-1; read-out: GI50): 3.57 µM
CC50 (CAKI-1; [18]): > 100 µM
TGI (CAKI-1; read-out: TGI): > 100 µM
GI50 (CAKI-1; read-out: pGI50 (converted)): 3.63 µM
CC50 (CAKI-1; [19]): > 100 µM
TGI (CAKI-1; read-out: pTGI (converted)): > 100 µM
growth at 0.1 µM (HCT-15): 90%
GI50 (KM12 [11]; read-out: GI50): 1.96 µM
CC50 (KM12 [11]; [18]): > 100 µM
GI50 (KM12 [11]; read-out: pGI50 (converted)): 1.95 µM
CC50 (KM12 [11]; [19]): > 100 µM
growth at 0.1 µM (OVCAR-4): 104%
growth at 1 µM (SF-295): 59%
growth at 1 µM (SNB-75): 72%
GI50 (SK-MEL-28 [12]; read-out: GI50): 4.71 µM
CC50 (SK-MEL-28 [12]; [18]): > 100 µM
TGI (SK-MEL-28 [12]; read-out: TGI): 85.3 µM
GI50 (SK-MEL-28 [12]; read-out: pGI50 (converted)): 4.68 µM
CC50 (SK-MEL-28 [12]; [19]): > 100 µM
TGI (SK-MEL-28 [12]; read-out: pTGI (converted)): 85.1 µM
growth at 0.01 µM (IGROV-1 [13]): 100%
growth at 0.1 µM (T47D): 93%
growth at 100 µM (U-251 [14]): -28%
growth at 100 µM (K562): 7%
growth at 1 µM (IGROV-1 [15]): 103%
growth at 10 µM (HT-29): 19.7%
growth at 0.01 µM (786-0 [16]): 94%
growth at 0.01 µM (BT-549): 95%

COc1cc(Cl)cc(-c2nn(-c3cccc(NC(=O)c4ccc(Cl)c(Cl)c4)c3)cc2-c2ccncc2)c1
growth at 10 µM (SK-MEL-2): 78.4%
growth at 10 µM (NCI-H522 [3]): 53.7%
growth at 10 µM (HT-29): 56.4%

COc1cc(Cl)cc(-c2nn(-c3cccc(NC(=O)Nc4ccc(Cl)c(Cl)c4)c3)cc2-c2ccncc2)c1
growth at 1 µM (SK-MEL-28 [1]): 87%
growth at 100 µM (NCI/ADR-RES [2]): -3%
growth at 100 µM (KM12 [17]): -17%
growth at 10 µM (SK-MEL-2): -32.1%
growth at 0.01 µM (RXF 393): 100%
growth at 10 µM (NCI-H522 [3]): -19%
growth at 1 µM (U-251 [4]): 71%
growth at 1 µM (NCI-H522 [5]): 60%
growth at 1 µM (UACC-257): 80%
growth at 0.01 µM (M14): 97%
growth at 100 µM (SK-MEL-5): -68%
growth at 0.1 µM (SK-OV-3 [6]): 90%
GI50 (SF-268; read-out: GI50): 3.27 µM
CC50 (SF-268; [18]): > 100 µM
TGI (SF-268; read-out: TGI): > 100 µM
GI50 (SF-268; read-out: pGI50 (converted)): 3.24 µM
CC50 (SF-268; [19]): > 100 µM
TGI (SF-268; read-out: pTGI (converted)): > 100 µM
growth at 0.01 µM (NCI/ADR-RES [7]): 97%
growth at 0.1 µM (786-0 [8]): 98%
growth at 0.1 µM (IGROV-1 [10]): 101%
GI50 (CAKI-1; read-out: GI50): 2.38 µM
CC50 (CAKI-1; [18]): > 100 µM
TGI (CAKI-1; read-out: TGI): 15.7 µM
GI50 (CAKI-1; read-out: pGI50 (converted)): 2.4 µM
CC50 (CAKI-1; [19]): > 100 µM
TGI (CAKI-1; read-out: pTGI (converted)): 16.6 µM
growth at 0.1 µM (HCT-15): 53%
GI50 (KM12 [11]; read-out: GI50): 2.02 µM
CC50 (KM12 [11]; [18]): > 100 µM
TGI (KM12 [11]; read-out: TGI): 10.8 µM
GI50 (KM12 [11]; read-out: pGI50 (converted)): 2.04 µM
CC50 (KM12 [11]; [19]): > 100 µM
TGI (KM12 [11]; read-out: pTGI (converted)): 10.7 µM
growth at 0.1 µM (OVCAR-4): 95%
growth at 1 µM (SF-295): 70%
growth at 1 µM (SNB-75): 71%
GI50 (SK-MEL-28 [12]; read-out: GI50): 2.96 µM
CC50 (SK-MEL-28 [12]; [18]): > 100 µM
TGI (SK-MEL-28 [12]; read-out: TGI): 35.6 µM
GI50 (SK-MEL-28 [12]; read-out: pGI50 (converted)): 2.95 µM
CC50 (SK-MEL-28 [12]; [19]): > 100 µM
TGI (SK-MEL-28 [12]; read-out: pTGI (converted)): 37.2 µM
growth at 0.01 µM (IGROV-1 [13]): 98%
growth at 0.1 µM (T47D): 94%
growth at 100 µM (U-251 [14]): -68%
growth at 100 µM (K562): 3%
growth at 1 µM (IGROV-1 [15]): 102%
growth at 10 µM (HT-29): 7.39%
growth at 0.01 µM (786-0 [16]): 100%
growth at 0.01 µM (BT-549): 96%
